Measured values published in publication PMC6325200, “Effects of Microplate Type and Broth Additives on Microdilution MIC Susceptibility Assays” (Antimicrobial Agents and Chemotherapy, 2018).

Legend:
E. coli ATCC 25922 = test: microbe, parasite or virus in culture; settings: n = 2
Description: A positive control of a row of just the bacteria and a negative control of only the medium were included for every plate tested.
The compounds along with standard antibiotics were serially diluted 2-fold across the 96-well plates. […] A sample of each culture was then diluted 40-fold in fresh MH broth (in presence and absence of Tween) and incubated at 37°C for 2 to 3 h.
For experiments in the presence of surfactant, 2% beractant (25 mg/ml) was added to the mid-log-phase cultures and mixed gently and added to all the 96-well plates. For experiments in the presence of serum, a mixture of 50% of human serum along with 50% MHB was prepared and used throughout the experiment.

A. baumannii ATCC 19606 = test: microbe, parasite or virus in culture; settings: Acinetobacter baumannii, n = 2
Method in brief: (§1)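 First, a sample of each culture was diluted 40-fold in fresh Mueller-Hinton broth containing or lacking Tween. Next, this was incubated 2 to 3 h at 37°C. Compounds, alongside comparator antibiotics, were tested as 2-fold serial dilutions on 96-well plates.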

K. pneumoniae ATCC 13883 = test: microbe, parasite or virus in culture; settings: Klebsiella pneumoniae, n = 2
Method in brief: as §1

P. aeruginosa ATCC 10145 = test: microbe, parasite or virus in culture; settings: Pseudomonas aeruginosa, n = 2
Method in brief: as §1

MRSA = settings: literature value; cited from earlier work
Description: TABLE 1 Literature MIC values for tested antibiotics | column: MIC (µg/ml) (reference[s]) / MRSA

E. coli = settings: literature value; cited from earlier work

CO[C@H]1/C=C/O[C@@]2(C)Oc3c(C)c(O)c4c(O)c(c(/C=N/N5CCN(C)CC5)c(O)c4c3C2=O)NC(=O)/C(C)=C\C=C\[C@H](C)[C@H](O)[C@@H](C)[C@@H](O)[C@@H](C)[C@H](OC(C)=O)[C@@H]1C [Rifampin, rifampin]
8 to 16 µg/mL: MIC (E. coli ATCC 25922; Corning PS plate, MHB +0.002% T80, no further additive) | MIC (E. coli ATCC 25922; Corning PS plate, MHB +0.002% T80, no further additive, listed as Rifampicin) | MIC (E. coli ATCC 25922; Escherichia coli, ATCC25922, 24 h, Corning TC, MH + 2% LHB, 50% HS) | MIC (E. coli ATCC 25922; Escherichia coli, ATCC25922, Corning PS plate, MHB +0.002% T80, no further additive) | MIC (E. coli ATCC 25922; Escherichia coli, ATCC25922, Trek PS plate, MHB +0.002% T80, no further additive) | MIC (E. coli ATCC 25922; Trek PS plate, MHB +0.002% T80, no further additive) | MIC (K. pneumoniae ATCC 13883; ATCC13883, Corning PS, MHB -T80)
0.015 ([62]) µg/ml: MIC (literature) (MRSA)
8 µg/mL: MIC (E. coli ATCC 25922; Escherichia coli, ATCC25922, 24 h, Corning NBS, MH + 2% LHB, 50% HS) | MIC (E. coli ATCC 25922; Escherichia coli, ATCC25922, 24 h, Corning NBS, MH + T80, 50% HS) | MIC (E. coli ATCC 25922; Escherichia coli, ATCC25922, 24 h, Corning PS, MH + T80, 50% HS) | MIC (E. coli ATCC 25922; Escherichia coli, ATCC25922, 24 h, Corning TC, MH + 2% LHB, 2% LS) | MIC (E. coli ATCC 25922; Escherichia coli, ATCC25922, 24 h, Corning TC, MH + 2% LHB, no additive) | MIC (E. coli ATCC 25922; Escherichia coli, ATCC25922, 24 h, Corning TC, MH + T80, 50% HS) | MIC (E. coli ATCC 25922; Escherichia coli, ATCC25922, Corning NBS plate, MHB +0.002% T80, no further additive) | MIC (E. coli ATCC 25922; Escherichia coli, ATCC25922, Corning NBS, MH, 2% LS) | MIC (E. coli ATCC 25922; Escherichia coli, ATCC25922, Corning NBS, MH, 50% HS) | MIC (E. coli ATCC 25922; Escherichia coli, ATCC25922, Corning PS, MH, 2% LS) | MIC (E. coli ATCC 25922; Escherichia coli, ATCC25922, Corning TC plate, MHB +0.002% T80, no further additive) | MIC (E. coli ATCC 25922; Escherichia coli, ATCC25922, Corning TC, MH, 2% LS) | MIC (E. coli ATCC 25922; Escherichia coli, ATCC25922, Corning TC, MH, 50% HS) | MIC (E. coli ATCC 25922; Escherichia coli, ATCC25922, Nunc U TC plate, MHB +0.002% T80) | MIC (E. coli ATCC 25922; Escherichia coli, ATCC25922, Nunc flat TC plate, MHB +0.002% T80) | MIC (E. coli ATCC 25922; Escherichia coli, ATCC25922, Trek PS, MH, 50% HS)
16 to 32 µg/mL: MIC (P. aeruginosa ATCC 10145; ATCC10145, Corning NBS, MHB -T80) | MIC (P. aeruginosa ATCC 10145; ATCC10145, Corning PS, MHB -T80)
2 ([74], [75]) µg/ml: MIC (literature) (E. coli)
16 µg/mL: MIC (K. pneumoniae ATCC 13883; ATCC13883, Corning NBS, MHB +T80) | MIC (K. pneumoniae ATCC 13883; ATCC13883, Corning NBS, MHB -T80) | MIC (K. pneumoniae ATCC 13883; ATCC13883, Corning TC, MHB +T80) | MIC (K. pneumoniae ATCC 13883; ATCC13883, Corning TC, MHB -T80)
2 µg/mL: MIC (A. baumannii ATCC 19606; ATCC19606, Corning NBS, MHB +T80) | MIC (A. baumannii ATCC 19606; ATCC19606, Corning NBS, MHB -T80) | MIC (A. baumannii ATCC 19606; ATCC19606, Corning PS, MHB +T80) | MIC (A. baumannii ATCC 19606; ATCC19606, Corning PS, MHB -T80) | MIC (A. baumannii ATCC 19606; ATCC19606, Corning TC, MHB +T80)
4 µg/mL: MIC (E. coli ATCC 25922; Escherichia coli, ATCC25922, 24 h, Trek PS, MH + 2% LHB, 50% HS) | MIC (E. coli ATCC 25922; Escherichia coli, ATCC25922, 24 h, Trek PS, MH + T80, 2% LS) | MIC (E. coli ATCC 25922; Escherichia coli, ATCC25922, Nunc PS plate, MHB −T80) | MIC (E. coli ATCC 25922; Escherichia coli, ATCC25922, Nunc flat TC plate, MHB −T80) | MIC (E. coli ATCC 25922; Escherichia coli, ATCC25922, Trek PS plate, MHB −T80, no additive)
4 to 8 µg/mL: MIC (E. coli ATCC 25922; Corning NBS plate, MHB −T80, no additive) | MIC (E. coli ATCC 25922; Corning NBS plate, MHB −T80, no additive, listed as Rifampicin) | MIC (E. coli ATCC 25922; Corning PS plate, MHB −T80, no additive) | MIC (E. coli ATCC 25922; Corning PS plate, MHB −T80, no additive, listed as Rifampicin) | MIC (E. coli ATCC 25922; Corning TC plate, MHB −T80, no additive) | MIC (E. coli ATCC 25922; Corning TC plate, MHB −T80, no additive, listed as Rifampicin) | MIC (E. coli ATCC 25922; Escherichia coli, ATCC25922, 24 h, Corning NBS, MH + 2% LHB, 2% LS) | MIC (E. coli ATCC 25922; Escherichia coli, ATCC25922, 24 h, Corning NBS, MH + T80, 2% LS) | MIC (E. coli ATCC 25922; Escherichia coli, ATCC25922, 24 h, Corning PS, MH + 2% LHB, 2% LS) | MIC (E. coli ATCC 25922; Escherichia coli, ATCC25922, 24 h, Corning PS, MH + 2% LHB, 50% HS) | MIC (E. coli ATCC 25922; Escherichia coli, ATCC25922, 24 h, Corning PS, MH + 2% LHB, no additive) | MIC (E. coli ATCC 25922; Escherichia coli, ATCC25922, 24 h, Corning PS, MH + T80, 2% LS) | MIC (E. coli ATCC 25922; Escherichia coli, ATCC25922, 24 h, Corning TC, MH + T80, 2% LS) | MIC (E. coli ATCC 25922; Escherichia coli, ATCC25922, 24 h, Trek PS, MH + 2% LHB, no additive) | MIC (E. coli ATCC 25922; Escherichia coli, ATCC25922, 24 h, Trek PS, MH + T80, 50% HS) | MIC (E. coli ATCC 25922; Escherichia coli, ATCC25922, Corning NBS plate, MHB −T80, no additive) | MIC (E. coli ATCC 25922; Escherichia coli, ATCC25922, Corning PS plate, MHB −T80, no additive) | MIC (E. coli ATCC 25922; Escherichia coli, ATCC25922, Corning PS, MH, 50% HS) | MIC (E. coli ATCC 25922; Escherichia coli, ATCC25922, Corning TC plate, MHB −T80, no additive) | MIC (E. coli ATCC 25922; Escherichia coli, ATCC25922, Nunc PS plate, MHB +0.002% T80) | MIC (E. coli ATCC 25922; Escherichia coli, ATCC25922, Nunc U TC plate, MHB −T80) | MIC (E. coli ATCC 25922; Escherichia coli, ATCC25922, Trek PS, MH, 2% LS)
32 to 64 µg/mL: MIC (P. aeruginosa ATCC 10145; ATCC10145, Corning PS, MHB +T80)
2 to 4 µg/mL: MIC (E. coli ATCC 25922; Escherichia coli, ATCC25922, 24 h, Corning NBS, MH + 2% LHB, no additive) | MIC (E. coli ATCC 25922; Escherichia coli, ATCC25922, 24 h, Trek PS, MH + 2% LHB, 2% LS) | MIC (A. baumannii ATCC 19606; ATCC19606, Corning TC, MHB -T80)
32 µg/mL: MIC (P. aeruginosa ATCC 10145; ATCC10145, Corning NBS, MHB +T80) | MIC (P. aeruginosa ATCC 10145; ATCC10145, Corning TC, MHB +T80) | MIC (P. aeruginosa ATCC 10145; ATCC10145, Corning TC, MHB -T80)
16 to 64 µg/mL: MIC (K. pneumoniae ATCC 13883; ATCC13883, Corning PS, MHB +T80)
